Like-named read-outs stand apart in the source and are kept apart here.
Assays:
[1] = Plasma and total brain concentrations at 1 h post single oral administration to female C57BL/6 mice; assay type: in vivo; conditions: mouse, 10 mg/kg oral gavage; for Kp at 1 h: brain/plasma, read-out: brain to plasma ratio
Procedure: The appropriate amount of test article was dissolved 10% dimethylacetamide (DMA)/90% (20% hydroxypropyl-β-cyclodextrin (HP-B-CD) w/v in water to obtain a final concentration of 1 mg/mL for oral dosing. Sonication, vortex, and homogenization was used as needed. Three female C57BL/6 mice aged 7-9 weeks (20-30 grams) were dosed by oral gavage 10 mg/kg solution of the test article.
Concentrations of test compounds in the plasma and brain samples (use plasma and brain homogenate standard curve for all samples appropriately) were analyzed using LC-MS/MS. Compounds having a brain-to-plasma ratio of greater than 0.2 were considered brain penetrant.

BTK = target: T1, BTK (Homo sapiens, UniProt Q06187); test: Assay to determine activity against BTK; assay type: biochemical; conditions: 1 mM ATP, 2 nM BTK, 90 minutes at room temperature
T1 construct: purchased Cama
Procedure: Solutions of compounds (test or control) in DMSO were prepared at the desired concentrations, and serially diluted to 11 concentrations by 3-fold dilution in 384pp-plate using TECAN EVO200. 20 nL of stock were transferred to 384 plate using Echo550. DMSO was used as vehicle control.
(BTK was obtained from Cama; FLPeptide2 was obtained from PerkinElmer and Ibrutinib was obtained from Selleck.) 5 μL of ATP solution were added to each well, followed by addition of 15 μL of BTK solution to initiate the reaction. (Note the final volume of each well was 20 μL containing MgCl2 (10 mM), Brij-35 (0.01%), DTT (2 mM), BSA (0.05%), EGTA (1 mM), HEPE (pH7.5) (50 mM), FLPeptide (1.5 uM), ATP (1 mM) and BTK (2 nM).
The plates were incubated at room temperature for 90 minutes and then stopping buffer added (75 μL, containing 0.5 M EDTA) to terminate the reaction. Samples from each well were analyzed using EZ reader. The % remaining activity was calculated using read conversion ratio (CR) according to the equation: […]
XLFit (equation 201) was used to calculate IC50's by floating both bottom and top.

BTK in RAMOS B cells = test: Assay to determine BTK activity in RAMOS B cells (anti-IgM, FLIPR Calcium 6); assay type: cell-based; conditions: anti-IgM EC80, calcium readout
Procedure: On the day before assay, Ramos B cells were plated in plating medium (RPMI1640 medium containing 1% FBS and 1× pencillin-streptomycin). On the day of the assay, 2× dye solution was prepared following the manual of the FLIRP Calcium 6 Assay Kit: Dilute the dye with assay buffer (20 mM HEPES in IX HBSS, pH7.4); Add probenecid to the final concentration of 5 mM; vortex vigorously for 1-2 minutes. Cells were collected by centrifuging, and the pellet was re-suspended in plating medium. After counting, cells were re-suspended at a density of 3×10^6/ml in plating medium. Equal volume of 2× dye solution was added to the cell suspension. Cells were then plated at 20 μl/well into a 384-well poly-D-lysine coated plate. Plate was centrifuged at 1000 rpm for 3 minutes and then incubated at 37° C. for 2 hours followed by an additional 15-minute incubation at 25° C. Compounds were prepared at 3× concentration in dilution buffer (20 mM HEPES and 0.1% BSA in 1×HBSS, pH 7.4). Serially diluted compound was transferred from source plate to a 384-well compound plate by using an Echo 550 (Labcyte). 20 μl/well compound dilution buffer was added to the compound plate and mixed on plate shaker for 2 mins. 4× EC80 of Anti-IgM (Jackson ImmunoResearch) was prepared in dilution buffer and 20 μl/well was added to a new 384-well compound plate. After 60 mins of incubation at 25° C. in the dark; cell plate, compound plate containing 4×EC80 of anti-IgM and FLIPR tips were placed into FLIPR (Molecular Devices). 10 ul/well of 4×EC80 anti-IgM was transferred to the cell plate by FLIPR. Plates were read for 160 sec with 1 sec interval.

[2] = plasma, read-out: Mean [plasma]

T1 sequence (Q06187 whole entry): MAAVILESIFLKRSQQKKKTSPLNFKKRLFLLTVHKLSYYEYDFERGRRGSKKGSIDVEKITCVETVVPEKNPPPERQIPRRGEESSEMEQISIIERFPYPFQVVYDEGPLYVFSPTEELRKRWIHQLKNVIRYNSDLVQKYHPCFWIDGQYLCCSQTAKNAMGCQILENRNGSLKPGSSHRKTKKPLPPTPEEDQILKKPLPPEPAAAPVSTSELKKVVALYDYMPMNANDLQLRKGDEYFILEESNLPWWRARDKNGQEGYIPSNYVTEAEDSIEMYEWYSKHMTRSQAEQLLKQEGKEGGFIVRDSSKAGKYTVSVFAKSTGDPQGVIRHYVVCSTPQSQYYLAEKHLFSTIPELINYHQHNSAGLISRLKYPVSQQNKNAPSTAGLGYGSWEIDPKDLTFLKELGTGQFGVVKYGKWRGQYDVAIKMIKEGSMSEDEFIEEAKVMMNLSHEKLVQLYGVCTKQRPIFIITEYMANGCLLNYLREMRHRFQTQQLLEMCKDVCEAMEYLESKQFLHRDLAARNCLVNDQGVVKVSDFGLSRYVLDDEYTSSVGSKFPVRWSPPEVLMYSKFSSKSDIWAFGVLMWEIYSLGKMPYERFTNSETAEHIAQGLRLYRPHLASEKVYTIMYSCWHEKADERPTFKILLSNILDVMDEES

Row | Compound | concentration at 1 h ([1]; brain, read-out: Mean [brain]) [ng/g] | Kp at 1 h [1] | concentration at 1 h [1, 2] [ng/mL] | IC50 (BTK) [nM] | IC50 (BTK in RAMOS B cells; Homo sapiens, Ramos) [nM] | IC50 (BTK in RAMOS B cells) [nM]
1 | CC#CC(=O)N1CCC[C@H]1c1nc(-c2ccc(C(=O)Nc3ccccn3)cc2)c2c(N)nccn12 [Acalabrutinib, reference compound] | 4 | 0.04 | 120 |  |  | 
2 | CC#CC(=O)N[C@H]1CCCN(c2c(F)cc(C(N)=O)c3[nH]c(C)c(C)c23)C1 [Branebrutinib, reference compound] | 15 | 0.002 | 6820 |  |  | 
3 | C=CC(=O)N1CCC[C@@H](c2cnc(C(N)=O)c3[nH]c4c(c23)CCCC4)C1 [Compound 2-4, (S)-4-(1-acryloylpiperidin-3-yl)-6,7,8,9-tetrahydro-5H-pyrido[3,4-b]indole-1-carboxamide] | 39 | 0.24 | 163 | < 10 | < 10 | 
4 | C=CC(=O)N1CCc2c(cccc2-c2ccc(C(N)=O)c3[nH]c4c(c23)CC2(CC4)CC2)C1 [Compound 7-2, 5-(2-acryloyl-1,2,3,4-tetrahydroisoquinolin-5-yl)-1,2,4,9-tetrahydrospiro[carbazole-3,1′-cyclopropane]-8-carboxamide] | 43 | 0.39 | 109 | 10 to 100 | ≥ 100 | 
5 | C=CC(=O)N1CCC=C(c2ccc(C(N)=O)c3[nH]c4c(c23)CSCC4)C1 [Compound 8-1, 9-(1-acryloyl-1,2,5,6-tetrahydropyridin-3-yl)-1,3,4,5-tetrahydrothiopyrano-[4,3-b]indole-6-carboxamide] |  |  |  | < 10 | < 10 | 
6 | CC#CC(=O)N[C@H]1CCCN(c2c(F)cc(C(N)=O)c3[nH]c4c(c23)CCN(C)CC4)C1 [Compound 9-5, (S)-10-(3-(but-2-ynamido)piperidin-1-yl)-9-fluoro-3-methyl-1,2,3,4,5,6-hexahydroazepino[4,5-b]indole-7-carboxamide] |  |  |  | < 10 | 10 to 100 | 
7 | C=CC(=O)N1CCC=C(c2ccc(C(N)=O)c3[nH]c4c(c23)C[Si](C)(C)CC4)C1 [Compound 9-7, 9-(1-acryloyl-1,2,5,6-tetrahydropyridin-3-yl)-2,2-dimethyl-2,3,4,5-tetrahydro-1H-silino[4,3-b]indole-6-carboxamide] |  |  |  | < 10 | 10 to 100 | 
8 | C=CC(=O)N1CCC[C@H](c2c(F)cc(C(N)=O)c3[nH]c4c(c23)CCC4)C1 [Compound 10-1, (R)-8-(1-acryloylpiperidin-3-yl)-7-fluoro-1,2,3,4-tetrahydrocyclopenta[b]-indole-5-carboxamide] |  |  |  | < 10 | < 10 | 
9 | CC#CC(=O)N[C@@H]1C=C(c2c(F)cc(C(N)=O)c3[nH]c4c(c23)CCC4)CCC1 [Compound 10-3, 8-[(3 S)-3-(but-2-ynoylamino)cyclohexen-1-yl]-7-fluoro-1,2,3,4-tetrahydrocyclopenta[b]indole-5-carboxamide] |  |  |  | < 10 | < 10 | 
10 | CC#CC(=O)N[C@H]1CCC=C(c2c(F)cc(C(N)=O)c3[nH]c4c(c23)CCC4)C1 [Compound 10-4, 8-[(5S)-5-(but-2-ynoylamino)cyclohexen-1-yl]-7-fluoro-1,2,3,4-tetrahydrocyclopenta[b]indole-5-carboxamide] |  |  |  | < 10 | < 10 | 
11 | CC#CC(=O)N[C@H]1C[C@H](F)CN(c2c(F)cc(C(N)=O)c3[nH]c4c(c23)CCC4)C1 [Compound 10-8, 8-((3S,5S)-3-(but-2-ynamido)-5-fluoropiperidin-1-yl)-7-fluoro-1,2,3,4-tetrahydrocyclopenta[b]indole-5-carboxamide] |  |  |  | < 10 | < 10 | 
12 | C=CC(=O)N1CCC(CNc2ncnc(N)c2-c2ccc(Oc3ccccc3)cc2)CC1 [Evobrutinib, reference compound] | 11 | 0.06 | 177 |  |  | 
13 | C=CC(=O)N1CCC[C@@H](n2nc(-c3ccc(Oc4ccccc4)cc3)c3c(N)ncnc32)C1 [Ibrutinib, reference compound] | 15 | 0.001 | 306 |  |  | 

Next, values leading:

Row | concentration at 1 h ([1]; brain, read-out: Mean [brain]) [ng/g] | Kp at 1 h [1] | concentration at 1 h [1, 2] [ng/mL] | IC50 (BTK) [nM] | IC50 (BTK in RAMOS B cells; Homo sapiens, Ramos) [nM] | IC50 (BTK in RAMOS B cells) [nM] | Compound
14 | 4 | 0.22 | 18 | < 10 | 10 to 100 |  | C=CC(=O)N1CCC=C(c2c(F)cc(C(N)=O)c3[nH]c4c(c23)CCCCC4)C1 [Compound 5-4, 1-(1-acryloyl-1,2,5,6-tetrahydropyridin-3-yl)-2-fluoro-5,6,7,8,9,10-hexahydrocyclohepta[b]indole-4-carboxamide]
15 |  |  |  | < 10 |  | 10 to 100 | C=CC(=O)N1CCc2c(cccc2-c2c(F)cc(C(N)=O)c3[nH]c4c(c23)CC2(CC4)CC2)C1 [Compound 7-24, 5-(2-acryloyl-1,2,3,4-tetrahydroisoquinolin-5-yl)-6-fluoro-1,2,4,9-tetrahydrospiro[carbazole-3,1′-cyclopropane]-8-carboxamide]
16 |  |  |  | ≥ 100 |  | ≥ 100 | C=CC(=O)N1CCc2c(cccc2-c2c(F)cc(C(N)=O)c3[nH]c4c(c23)CC2(CC4)CC2)C1 [Compound 7-25, 5-(2-acryloyl-1,2,3,4-tetrahydroisoquinolin-5-yl)-6-fluoro-1,2,4,9-tetrahydrospiro[carbazole-3,1′-cyclopropane]-8-carboxamide]
17 |  |  |  | ≥ 100 | ≥ 100 |  | C=CC(=O)N1CCc2c(cccc2-c2c(C)nc(C(N)=O)c3[nH]c4c(c23)CC2(CC4)CC2)C1 [Compound 7-26, 4′-(2-acryloyl-1,2,3,4-tetrahydroisoquinolin-5-yl)-3′-methyl-5′,7′,8′,9′-tetrahydrospiro[cyclopropane-1,6′-pyrido[3,4-b]indole]-1′-carboxamide]
18 |  |  |  | 10 to 100 | 10 to 100 |  | C=CC(=O)N1CCc2c(cccc2-c2cnc(C(N)=O)c3[nH]c4c(c23)CC(F)(F)CC4)C1 [Compound 7-29, 4-(2-acryloyl-1,2,3,4-tetrahydroisoquinolin-5-yl)-6,6-difluoro-6,7,8,9-tetrahydro-5H-pyrido[3,4-b]indole-1-carboxamide]
19 |  |  |  | < 10 | 10 to 100 |  | C=CC(=O)N1CCc2c(cccc2-c2ncc(C(N)=O)c3[nH]c4c(c23)CC2(CC4)CC2)C1 [Compound 7-30, 1′-(2-acryloyl-1,2,3,4-tetrahydroisoquinolin-5-yl)-5′,6′,7′,9′-tetrahydrospiro[cyclopropane-1,8′-pyrido[4,3-b]indole]-4′-carboxamide]
20 |  |  |  | 10 to 100 | 10 to 100 |  | C=CC(=O)N1CCc2c(cccc2-c2c(F)cc(C(N)=O)c3[nH]c4c(c23)CCN(C)CC4)C1 [Compound 9-6, 10-(2-acryloyl-1,2,3,4-tetrahydroisoquinolin-5-yl)-9-fluoro-3-methyl-1,2,3,4,5,6-hexahydroazepino[4,5-b]indole-7-carboxamide]
21 |  |  |  | < 10 | 10 to 100 |  | CC#CC(=O)N(C)[C@H]1CCCN(c2c(F)cc(C(N)=O)c3[nH]c4c(c23)CCC4)C1 [Compound 10-7, 8-[(3S)-3-[but-2-ynoyl(methyl)amino]-1-piperidyl]-7-fluoro-1,2,3,4-tetrahydrocyclopenta[b]indole-5-carboxamide]
22 |  |  |  | 10 to 100 | 10 to 100 |  | CC#CC(=O)N[C@H]1C[C@@H](F)CN(c2c(F)cc(C(N)=O)c3[nH]c4c(c23)CCC4)C1 [Compound 10-9, 8-((3S,5R)-3-(but-2-ynamido)-5-fluoro-piperidin-1-yl)-7-fluoro-1,2,3,4-tetrahydrocyclopenta[b]indole-5-carboxamide]
